Counter-ions that a name gives are not always drawn.
Legend:
[1] = test system: GQ structures; experiment: BG4 immunofluorescence of GQ foci, HeLa cells in normoxia; assay type: cell-based; conditions: 24 h, 35.0 µM S-4,0, 40.0 µM C-4,2, 37.5 µM C-5,2, 2 µM RHPS4, over DMSO
From the text: After measuring the viability of HeLa cells upon treatment with the newly synthesised MTDLs mentioned above, we probed the capability of the three most cytotoxic ones (S-4,0, C-4,2, and C-5,2) to affect the formation of GQ structures by immunofluorescence (IF) microscopy, using the BG4 antibody that selectively recognises the GQ structures. As it can be noticed in Figure 6, the fluorescence intensity of the total number of GQ foci increased by around 30% after treatment with both the coumarin derivative C-4,2 and the reference GQ binder RHPS4, whereas it was not affected by S-4,0 and C-5,2. […] On the contrary, the levels of GQ structures were influenced neither by the treatment with the sulphonamide S-4,0 nor by the coumarin C-5,2, despite their ability to thermally stabilise some GQ-forming sequences in vitro.
Figure 6. (A) Representative fields showing G4 foci formation detected by immunofluorescence in HeLa cells treated for 24 h with 35.0 µM S-4,0, 40.0 µM C-4,2, and 37.5 µM C-5,2 or an equivalent amount of vehicle (0.1% DMSO). As a positive control, cells were treated with 2 µM RHPS4 (a well-established GQ ligand)[68] for 24 h. Scale bar: 10 µm. Upper panels: the merged channels of BG4-stained GQ structures (magenta) and Hoechst-counterstained nuclei (grey) are reported. Lower panels: enlargements from the pictures in the upper panels. (B) Quantitative analysis of the fluorescence intensity of the total number of GQ foci. An average of 50 cells were screened for each condition and the results are expressed as a fold change of fluorescence intensity (anti-GQ signal) over the negative control (DMSO). Histograms show the mean ± SD of three independent experiments. The statistical significance was calculated using a one-way ANOVA test on GraphPad Prism 8.0.2 (ns: not significant, **: p < 0.01).
For the IF experiments in the presence of normal oxygen levels, HeLa cells were seeded on sterile coverslips, in a 24-well plate, at a density of 90,000 cells per well, and incubated overnight. Then, cells were treated with a sublethal concentration of each investigated MTDL or an equivalent amount of vehicle (0.1% DMSO), for 24 h. As positive control, cells were exposed for 24 h to 2 µM RHPS4. As regards the IF experiments under hypoxic conditions, HeLa were seeded on sterile coverslips, in a 24-well plate, at a density of 50,000 cells per well, and incubated overnight. […] From there, the cellular and nuclear foci were segmented, and their number or fluorescence intensity was quantified by using the Image Analysis package of ZEISS ZEN 3.1 software.

melting point | SMILES | increase of fluorescence intensity of the total number of GQ foci [1]
171 to 173 °C | COc1ccc2cc3[n+](cc2c1OCc1cn(CCCCCOc2ccc4ccc(=O)oc4c2)nn1)CCc1cc2c(cc1-3)OCO2 (as salt: phosphate) [Compound 44, 10-Methoxy-9-((1–(5-((2-oxo-2H-chromen-7-yl)oxy)pentyl)-1H-1,2,3-triazol-4-yl)methoxy)-5,6-dihydro-[1,3]dioxolo[4,5-g]isoquinolino[3,2-a]isoquinolin-7-ium hexafluorophosphate] | –
280 to 282 °C | COc1ccc2cc3[n+](cc2c1OCc1cn(-c2ccc4c(C)cc(=O)oc4c2)nn1)CCc1cc2c(cc1-3)OCO2 (as salt: phosphate) [Compound 45, 10-Methoxy-9-((1–(4-methyl-2-oxo-2H-chromen-7-yl)-1H-1,2,3-triazol-4-yl)methoxy)-5,6-dihydro-[1,3]dioxolo[4,5-g]isoquinolino[3,2-a]isoquinolin-7-ium hexafluorophosphate] | –
– | COS(=O)(=O)[O-].Cc1cc2c3c([n+](C)c4ccc(F)cc4c3c1)-c1cc(F)ccc1N2C [RHPS4, reference compound] | around 30%

Reference: article PMC11195807, “Development of a multi-targeted chemotherapeutic approach based on G-quadruplex stabilisation and carbonic anhydrase inhibition” (Journal of Enzyme Inhibition and Medicinal Chemistry, 2024)
